# Legend:
# [1] = Aqueous solubility and pH of the salt; assay type: physicochemical; settings: formate salt
# Excerpt: The synthetic approach to the trisubstituted series adapts previously published procedures to simplify purification and increase yields of both intermediates and final compounds (Scheme 1). 5,5-Dimethyl-1,3-dibromohydantoin was used for the regioselective bromination of the starting material, enabling more efficient and convenient purification. The separation of final products was achieved using column chromatography, giving a 26% overall yield for CM03.
# CM03 was then converted to a mixed hydrochloride/formate salt in order to enhance its aqueous solubility. At a concentration of 5 mg/mL, the pH of the CM03 salt solution was 6.95.
# [2] = system: breast adenocarcinoma (MCF7); assay: 96 h SRB growth inhibition assay, MCF7; assay type: cell-based; settings: Homo sapiens
# Procedure: (§1) Compounds were screened with a 96 h SRB (sulforhodamine B) assay for their antiproliferative activity in a panel of human cancer cell lines comprising lung adenocarcinoma (A549), breast adenocarcinoma (MCF7), and PDAC (MIA PaCa-2 and PANC-1) cell lines, as well as a fetal lung fibroblast-like nononcogenic control cell line (WI-38) (Figure 1f). […] Gemcitabine is also active in these lines at low nanomolar levels, although less so in MIA PaCa-2 (IC50 19 ± 5 nM) and more so in BX-PC3 cells (6 ± 2 nM).
# (§2) All cell lines were purchased from ATCC and maintained in appropriate medium supplemented with 10% fetal bovine serum (Invitrogen, UK), 2 mM L-glutamine (Invitrogen, Netherlands), and other components as specified by the suppliers. Cell lines were maintained at 37 °C, 5% CO2, and routinely passaged. Drugs were dissolved in H2O and filtered through 0.22 μm pore-size filter units (stock 10 mM) before addition to appropriate cell line media. Cellular growth inhibition was measured using the sulforhodamine B (SRB) assay in 96-well plates as described previously.[78] The 50% inhibitory concentrations (IC50) were determined by taking the mean absorbance at 540 nm for each drug concentration expressed as a percentage of the absorbance of untreated control wells.
# [3] = system: MIA PaCa-2 pancreatic tumor xenograft; assay: Subcutaneous MIA PaCa-2 pancreatic tumor xenograft therapy study; assay type: in vivo; settings: 15 mg/kg IV twice weekly for 28 days
# Procedure: To determine if the in vitro activity of CM03 was paralleled in vivo, we explored the activity of CM03 in a mouse xenograft model of PDAC. We have previously reported that the maximum tolerated dosage (MTD) for intravenous (IV) administration of MM41 is 25 mg/kg.[33] CM03 was well tolerated, up to a dosage of 45–50 mg/kg, as judged by a dose-escalation MTD study. A therapeutic schedule of two CM03 intravenous (IV) doses was explored using a subcutaneous MIA PaCa-2 pancreatic tumor xenograft model derived from the human cell line used in the cell growth inhibition studies. A group size of eight CD-1 nude mice was used, and dosing was conducted at 10 and 15 mg/kg, each twice weekly, over a period of 4 weeks (28 days: 8 doses). Two further groups were given either MM41 or gemcitabine at 15 mg/kg and received the same dose regimen. […] IVIS imaging of treated mice was performed by taking account of the intrinsic fluorescence of CM03. […] Thus, in contrast to MM41 and gemcitabine, the higher-dose CM03 treatment results in a statistically significant (p < 0.001) antitumor effect, which persisted long after dosing had ceased, up to the termination of the xenograft experiment (62 days).
# For therapy studies, female CD-1 nude mice (2–3 months old, weighing 20–25 g) were injected subcutaneously with 5 × 10^6 MIA PaCa-2 cells in the right flank (unsupplemented RPMI + Matrigel). When the tumors were established (approximately 13 days, mean size 0.05 cm^3), the mice were divided into five treatment groups with eight mice/group. The MM41 and CM03 samples were dissolved directly in saline to the required concentrations and administered IV. Tumor size was measured weekly by calliper using the π-based ellipsoid volume formula (length × width × height × π/6) every 3–4 days, and the mice were also weighed and examined at the same time to determine any signs of toxicity from the drug.
# • Group 1:15 mg/kg of gemcitabine (Sigma), twice weekly dose. • Group 2:15 mg/kg of MM41, twice weekly dose. • Group 3:10 mg/kg of CM03, twice weekly dose. • Group 4:15 mg/kg of CM03, twice weekly dose. • Group 5: saline only, twice weekly dose.
# The xenograft data was analyzed using Student’s t test (GraphPad Inc.). Responses were considered to be significant for those with probabilities (p) less than 5% (p < 0.05). Mice were culled if there was any sign of tumor ulceration, if tumor volume exceeded 1.5 cm^3, or if a weight loss over 20% of initial body weight was observed. Samples of liver, kidney, and spleen from each animal in the CM03 (15 mg/kg) and untreated control groups were excised at the end of the therapy experiment, then fixed in 10% neutral buffered formalin for at least 48 h prior to processing and paraffin embedding. Tissue slices were stained with hematoxylin and eosin and assessed visually for any obvious differences compared with controls, indicative of toxicity and tissue damage. For the imaging study mice were anesthetized using isoflurane and imaged using the IVIS preclinical imaging system from PerkinElmer. Images were captured after 4 h following intravenous administration of CM03 using Cy5.5 excitation for 5 s.
# [4] = target: hERG (Homo sapiens, UniProt Q12809); assay: hERG liability (unpublished data)
# [5] = system: PDAC PANC-1 cells; assay: 96 h SRB growth inhibition assay, PANC-1; assay type: cell-based; settings: Homo sapiens
# Procedure: as §1, §2
# [6] = system: fetal lung fibroblast-like nononcogenic control cell line (WI-38); assay: 96 h SRB growth inhibition assay, WI-38; assay type: cell-based, human; settings: Homo sapiens, WI-38; SMILES csv supplement; read-out: WI-30 IC50
# Procedure: as §1, §2
# [7] = system: MIA PaCa-2 pancreatic tumor xenograft; parameters: method as in PMID 26077929; settings: cited from earlier work
# Chain of hERG (Q12809 whole entry): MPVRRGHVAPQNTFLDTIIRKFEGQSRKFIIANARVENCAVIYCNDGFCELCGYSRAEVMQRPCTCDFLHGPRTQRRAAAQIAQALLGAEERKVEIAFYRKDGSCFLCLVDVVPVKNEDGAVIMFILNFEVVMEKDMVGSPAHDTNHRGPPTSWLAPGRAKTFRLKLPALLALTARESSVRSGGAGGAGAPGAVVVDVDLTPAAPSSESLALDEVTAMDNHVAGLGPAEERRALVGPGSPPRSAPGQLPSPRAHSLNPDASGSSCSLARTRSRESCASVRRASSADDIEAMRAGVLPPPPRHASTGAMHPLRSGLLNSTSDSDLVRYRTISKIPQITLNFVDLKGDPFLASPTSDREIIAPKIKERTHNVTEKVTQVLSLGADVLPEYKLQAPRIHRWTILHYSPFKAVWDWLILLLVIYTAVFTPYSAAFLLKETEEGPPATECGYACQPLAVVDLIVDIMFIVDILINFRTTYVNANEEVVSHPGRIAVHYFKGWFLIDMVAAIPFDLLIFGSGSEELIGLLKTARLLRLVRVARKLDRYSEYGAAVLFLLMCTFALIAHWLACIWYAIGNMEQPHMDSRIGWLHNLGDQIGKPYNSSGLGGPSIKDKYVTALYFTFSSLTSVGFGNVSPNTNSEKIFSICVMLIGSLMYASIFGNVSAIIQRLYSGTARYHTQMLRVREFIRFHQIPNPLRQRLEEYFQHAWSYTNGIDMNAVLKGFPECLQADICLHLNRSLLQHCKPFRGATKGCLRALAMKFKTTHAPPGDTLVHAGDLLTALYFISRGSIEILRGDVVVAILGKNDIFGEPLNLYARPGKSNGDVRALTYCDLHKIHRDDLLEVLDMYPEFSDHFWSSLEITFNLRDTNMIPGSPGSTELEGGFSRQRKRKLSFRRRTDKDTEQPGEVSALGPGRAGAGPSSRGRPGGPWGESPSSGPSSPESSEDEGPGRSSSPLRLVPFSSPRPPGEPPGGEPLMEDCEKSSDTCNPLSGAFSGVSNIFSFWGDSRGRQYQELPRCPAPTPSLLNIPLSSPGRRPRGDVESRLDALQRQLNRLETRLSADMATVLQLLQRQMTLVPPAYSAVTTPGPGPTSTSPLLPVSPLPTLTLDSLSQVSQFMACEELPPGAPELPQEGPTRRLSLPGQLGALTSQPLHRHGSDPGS
structure (smiles),measurement,setting,value
"CN1CCN(CCCNc2cc3c4c(c(NCCCN5CCN(C)CC5)cc5c4c2C(=O)N(CCCN2CCOCC2)C5=O)C(=O)N(CCCN2CCOCC2)C3=O)CC1 [MM41, 4,9-bis((3-(4-methylpiperazin-1-yl)propyl)amino)-2,7-bis(3-morpholinopropyl)benzo[lmn][3,8]phenanthroline-1,3,6,8(2H,7H)-tetraone, reference compound]",water solubility,[1],freely water-soluble
same,IC50,[2],70 ± 10 nM
same,MTV ± SEM (Day 29),[3],0.05 ± 0.02 cm^3
same,MTV ± SEM (Day 62),[3],0.26 ± 0.14 cm^3
same,hERG liabilities,[4],neither MM41 nor CM03 show significant hERG liabilities
same,IC50,[5],3 ± 1 nM
same,IC50,[6],230 ± 50 nM
same,reduction of tumor volume in a PDAC xenograft model,[7],~80%
